According to paper PMC12686243, “Synthesis and preclinical evaluation of FAP-targeting radiotracers for PET and optical imaging” (EJNMMI Radiopharmacy and Chemistry, 2025):
Like-named read-outs stand apart in the source and are kept apart here.

How the values were obtained:
hFAP (hFAP-HT1080 cells) = biological target: T1, hFAP (hFAP-HT1080 cells) (Homo sapiens, UniProt Q12884); assay: saturation binding to hFAP-HT1080 cells; conditions: 60 min, 37 °C
T1 construct: expressed in transfected cells; host or cells: HT1080 (human fibrosarcoma), lentiviral transduction
T1 sequence (Q12884 1-760): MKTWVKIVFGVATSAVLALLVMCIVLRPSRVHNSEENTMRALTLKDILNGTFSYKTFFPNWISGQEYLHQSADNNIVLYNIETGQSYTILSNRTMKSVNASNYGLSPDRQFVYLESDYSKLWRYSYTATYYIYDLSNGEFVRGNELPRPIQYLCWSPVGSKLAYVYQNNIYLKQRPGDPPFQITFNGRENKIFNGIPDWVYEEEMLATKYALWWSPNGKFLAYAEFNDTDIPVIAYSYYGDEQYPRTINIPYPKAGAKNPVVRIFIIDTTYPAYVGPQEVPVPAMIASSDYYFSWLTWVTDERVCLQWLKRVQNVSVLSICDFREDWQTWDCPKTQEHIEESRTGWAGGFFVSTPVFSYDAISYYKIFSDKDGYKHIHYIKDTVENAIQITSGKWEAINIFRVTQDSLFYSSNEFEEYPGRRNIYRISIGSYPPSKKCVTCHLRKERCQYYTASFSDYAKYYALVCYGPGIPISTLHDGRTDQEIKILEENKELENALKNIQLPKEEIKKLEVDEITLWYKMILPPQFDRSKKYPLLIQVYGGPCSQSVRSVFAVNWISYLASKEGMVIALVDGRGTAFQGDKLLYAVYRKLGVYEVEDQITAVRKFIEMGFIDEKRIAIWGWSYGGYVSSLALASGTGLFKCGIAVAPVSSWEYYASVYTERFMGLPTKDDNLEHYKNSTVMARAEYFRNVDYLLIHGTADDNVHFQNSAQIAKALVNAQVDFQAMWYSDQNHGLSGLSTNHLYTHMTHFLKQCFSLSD
Description: Saturation binding (n ≥ 3, in triplicates) was performed to estimate thermodynamic dissociation constants (KD) and number of binding sites (Bmax). hFAP-HT1080 were cultured under the conditions described above. On the day of the experiment, 48-well plates were kept at 37 °C in an incubation chamber. The medium was replaced with 200 µL CO2-independent medium, (Gibco #18045088, ThermoFisher Germany) for total binding (TB) conditions. For the assessment of nonspecific binding (NSB), the same medium was used, containing 14 µM of FAPI-04 (in DMSO, resulting in 0.007% v/v). After 15 min preincubation for TB/NSB, 200 µL of each eight serial 1:1 dilutions (75 to 0.12 nM) of the respective radioligand were added (in triplicate), resulting in a final concentration per well of 35–0.06 nM. Cells were incubated with the respective radioligand for 60 min at 37 °C. The incubation medium was discarded and the wells washed with ice-cold PBS (2x ~ 30 s). The cells were then lysed with 500 µL 0.1 M NaOH + 1% SDS. For radioactivity detection, 400 µL of lysate was measured in a gamma counter (Perkin Elmer Wizard 1480). Additionally, binding to polystyrene in absence of cells was determined in 400 µL of lysate, along with the activity of all dilutions (50 µL). However, intrinsic plastic adherence of both compounds was very low. All counts were decay-corrected to a reference time (end of radiolabeling). Protein content was determined in an additional plate, subjected to the same conditions (pre-incubation, incubation and washing) by BCA assay and a mean value (µg/mL) used for this particular dataset (all replicate plates). From CPM measurements, final values (pmol/mg protein) were calculated using mean protein content and molar activity. Similarly, lysates from a random plate were subjected to fluorescent detection. For that purpose, 100 µL were pipetted bubble free into a transparent bottom 96 well imaging plate (Greiner Bio-One, µclear #655087). The plate was then imaged on a Typhoon 9500 bio imager (GE, USA) using either the Cy5 or IR-long filter-set (350–500 PMT voltage). From these images, fluorescence density (counts/mm^2) was determined (Bio-Rad, Quantity One 4.6.8). All processed data was then subjected to non-linear iterative curve fitting (GraphPad Prism 10) to yield Bmax (in pmol/mg protein or CNT/mm^2) and KD (in nM).

[1] = biological target: T2, hFAP (vital hFAP-HT1080 cells) (Homo sapiens, UniProt Q12884); assay: real-time binding (LigandTracer) to vital hFAP-HT1080 cells; conditions: for Bmax (%): fitted per individual curve, range; for Bmax (%) / ka / kd: room temperature; for ka / kd: global fit, 1:1 model
T2 construct: expressed in transfected cells; host or cells: HT1080 (human fibrosarcoma), lentiviral transduction
T2 sequence (Q12884 1-760): T1 sequence (Q12884 1-760)
Description: To determine binding kinetics (association rate constant ka, dissociation rate constant kd, and thermodynamic dissociation constant KD), real-time assay systems (LigandTracer Yellow/White for radioactivity and Green with Red/NIR + and NIR + + /IR detectors for fluorescence; Ridgeview Instruments AB, Sweden) were utilized. In a 100 mm petri dish, cells or tissue sections in medium (3–4 mL total volume), are located on one side, while the radioactive or fluorescent signal is detected on the opposite, elevated side. Rotation on an inclined base in set intervals (30 s) allows continuous measurement of signal in the target (cells/tissue) against background area (no cells/tissue). Experiments were performed at room temperature, using CO2-independent medium, usually with 0.5–1% w/v bovine serum albumin, (#1ETA, Carl Roth, Germany). Association was determined through incubation with two distinct concentrations (between 1–5 and 4.5–10 nM, 60 min each, additive) for each compound. For that purpose, the same ligand preparation was typically employed for radioactive and fluorescent detection. This was followed by replacement with fresh medium and observation of dissociation for at least 2 h. Additionally, the dissociation rate constant was further investigated beyond 6 h, either using fluorescent detection or via gallium-67 (t1/2: 78.3 h). This approach provides reliable kinetic measurements in a 1:1 interaction setting, as previously shown (Onell and Andersson [2005]).
Binding data was evaluated using TraceDrawer (1.9.2, Ridgeview Instruments AB, Sweden). Traces were imported, potential spikes (> 100% sudden signal increases over previous datapoints) removed and each trace was normalized to its own baseline (= 0%) and highest value (= 100%, typically at the end of the second association phase). This allows comparing data across experiments and ultimately global fitting, without differences, e.g. of molar activity, affecting it. Typically, at least 3 individual traces per ligand, substrate and modality were recorded. Data was fitted in TraceDrawer using a 1:1 interaction model, with/without accounting for bulk effect. A 1:1 interaction is the simplest model, as it describes the binding of a ligand at a constant concentration to the target, with each one molecule of ligand binding to one molecule of target.

[2] = n = 1, read-out: KD, fluorescent label detection, best fit
[3] = nonspecific binding with 14 µM FAPI-04, n = 3
[4] = nonspecific binding with 14 µM FAPI-04, n = 3, read-out: KD, radioactive label detection, best fit
[5] = from global fit of ka and kd, read-out: KD
[6] = real-time binding, live cells, read-out: binding affinity (KD)

SMILES: CN(CCCN1CCN(C(=O)[C@H](CCCCNC(=O)CC[C@H](C(=O)[O-])N2CCN(CC(=O)[O-])CCN(CC(=O)[O-])CC2)NC(=O)CCOCCOCCOCCOCCNC(=O)CCCCCN2C(=CC=C3CCCC(C=CC4=[N+](CCCCS(=O)(=O)[O-])c5ccc(S(=O)(=O)O)cc5C4(C)C)=C3Oc3ccc(S(=O)(=O)O)cc3)C(C)(C)c3cc(S(=O)(=O)O)ccc32)CC1)c1ccc2nccc(C(=O)NCC(=O)N3CC(F)(F)C[C@H]3C#N)c2c1.[68Ga+3] [[^68Ga]Ga-NODAGA-FAP800]
- Bmax, fluorescent label detection, best fit (hFAP (hFAP-HT1080 cells); n = 1): 5.7 * 10^5 AU
- Kd (hFAP (hFAP-HT1080 cells); [2]): 1.24 nM
- Bmax, radioactive label detection, best fit (hFAP (hFAP-HT1080 cells); [3]): 1.41 pmol/mg/protein
- Kd (hFAP (hFAP-HT1080 cells); [4]): 1.65 nM
- Bmax (%) [1]: 91–96%
- Kd [1, 5]: 0.0576 nM
- ka [1]: 411000 M⁻¹ s⁻¹
- kd [1]: 2.37e-05 s⁻¹
- Kd [1, 6]: 0.058 nM

SMILES: CN(CCCN1CCN(C(=O)[C@H](CCCCNC(=O)CC[C@H](C(=O)[O-])N2CCN(CC(=O)[O-])CCN(CC(=O)[O-])CC2)NC(=O)CCOCCOCCOCCOCCNC(=O)CCCCC[N+]2=C(C=CC=CC=C3N(CCCS(=O)(=O)O)c4ccc(S(=O)(=O)O)cc4C3(C)C)C(C)(CCCS(=O)(=O)O)c3cc(S(=O)(=O)[O-])ccc32)CC1)c1ccc2nccc(C(=O)NCC(=O)N3CC(F)(F)C[C@H]3C#N)c2c1.[68Ga+3] (stereo partly drawn) [[^68Ga]Ga-NODAGA-FAP647]
- Bmax, fluorescent label detection, best fit (hFAP (hFAP-HT1080 cells); n = 1): 4.8 * 10^5 AU
- Kd (hFAP (hFAP-HT1080 cells); [2]): 0.76 nM
- Bmax, radioactive label detection, best fit (hFAP (hFAP-HT1080 cells); [3]): 1.63 pmol/mg/protein
- Kd (hFAP (hFAP-HT1080 cells); [4]): 0.99 nM
- Bmax (%) [1]: 84–98%
- Kd [1, 5]: 0.0138 nM
- ka [1]: 484000 M⁻¹ s⁻¹
- kd [1]: 6.67e-06 s⁻¹
- Kd [1, 6]: 0.014 nM
